In the assay the target is Ba/F3 FIG-ROS L1982F cells (Homo sapiens, UniProt P08922, L1982F, cells depend on it). As to the kind of experiment: Cell viability assay, Ba/F3 FIG-ROS L1982F. As to conditions: Table 3, Ba/F3 FIG-ROS L1982F; nM; read-out: IC50 (the source's name). The class given is cell-based. Here is the method: Cell lines were distributed in 96-well plates and incubated with the indicated concentrations of inhibitor for 72 hours. […] Ba/F3 cell lines were plated at 4×10^3 cells/well. HCC78 and mCC cell lines were plated at 1.5×10^3 cells/well. All cell types were seeded in a final volume of 80 microliters. A 20 microliter volume of five-fold concentrated inhibitor media was added. Cell proliferation was measured using a […] viability assay (CellTiter96 Aqueous One® Solution; Promega). A BioTek Synergy 2® plate reader was used to read the absorbance at 490 nm at 30 minutes and 1 hour after addition of MTS. To facilitate comparison between experiments, the raw MTS absorbance of vehicle (0.1% DMSO) treated cells was set to 1 and absorbance from inhibitor treated wells was normalized to the vehicle treated value. […] Data were normalized using Microsoft Excel® and further non-linear regression curve fit analysis of the normalized data for determination of IC50 was performed using Graphpad Prism® software.
Sequence of Ba/F3 FIG-ROS L1982F cells (P08922 whole entry L1982F): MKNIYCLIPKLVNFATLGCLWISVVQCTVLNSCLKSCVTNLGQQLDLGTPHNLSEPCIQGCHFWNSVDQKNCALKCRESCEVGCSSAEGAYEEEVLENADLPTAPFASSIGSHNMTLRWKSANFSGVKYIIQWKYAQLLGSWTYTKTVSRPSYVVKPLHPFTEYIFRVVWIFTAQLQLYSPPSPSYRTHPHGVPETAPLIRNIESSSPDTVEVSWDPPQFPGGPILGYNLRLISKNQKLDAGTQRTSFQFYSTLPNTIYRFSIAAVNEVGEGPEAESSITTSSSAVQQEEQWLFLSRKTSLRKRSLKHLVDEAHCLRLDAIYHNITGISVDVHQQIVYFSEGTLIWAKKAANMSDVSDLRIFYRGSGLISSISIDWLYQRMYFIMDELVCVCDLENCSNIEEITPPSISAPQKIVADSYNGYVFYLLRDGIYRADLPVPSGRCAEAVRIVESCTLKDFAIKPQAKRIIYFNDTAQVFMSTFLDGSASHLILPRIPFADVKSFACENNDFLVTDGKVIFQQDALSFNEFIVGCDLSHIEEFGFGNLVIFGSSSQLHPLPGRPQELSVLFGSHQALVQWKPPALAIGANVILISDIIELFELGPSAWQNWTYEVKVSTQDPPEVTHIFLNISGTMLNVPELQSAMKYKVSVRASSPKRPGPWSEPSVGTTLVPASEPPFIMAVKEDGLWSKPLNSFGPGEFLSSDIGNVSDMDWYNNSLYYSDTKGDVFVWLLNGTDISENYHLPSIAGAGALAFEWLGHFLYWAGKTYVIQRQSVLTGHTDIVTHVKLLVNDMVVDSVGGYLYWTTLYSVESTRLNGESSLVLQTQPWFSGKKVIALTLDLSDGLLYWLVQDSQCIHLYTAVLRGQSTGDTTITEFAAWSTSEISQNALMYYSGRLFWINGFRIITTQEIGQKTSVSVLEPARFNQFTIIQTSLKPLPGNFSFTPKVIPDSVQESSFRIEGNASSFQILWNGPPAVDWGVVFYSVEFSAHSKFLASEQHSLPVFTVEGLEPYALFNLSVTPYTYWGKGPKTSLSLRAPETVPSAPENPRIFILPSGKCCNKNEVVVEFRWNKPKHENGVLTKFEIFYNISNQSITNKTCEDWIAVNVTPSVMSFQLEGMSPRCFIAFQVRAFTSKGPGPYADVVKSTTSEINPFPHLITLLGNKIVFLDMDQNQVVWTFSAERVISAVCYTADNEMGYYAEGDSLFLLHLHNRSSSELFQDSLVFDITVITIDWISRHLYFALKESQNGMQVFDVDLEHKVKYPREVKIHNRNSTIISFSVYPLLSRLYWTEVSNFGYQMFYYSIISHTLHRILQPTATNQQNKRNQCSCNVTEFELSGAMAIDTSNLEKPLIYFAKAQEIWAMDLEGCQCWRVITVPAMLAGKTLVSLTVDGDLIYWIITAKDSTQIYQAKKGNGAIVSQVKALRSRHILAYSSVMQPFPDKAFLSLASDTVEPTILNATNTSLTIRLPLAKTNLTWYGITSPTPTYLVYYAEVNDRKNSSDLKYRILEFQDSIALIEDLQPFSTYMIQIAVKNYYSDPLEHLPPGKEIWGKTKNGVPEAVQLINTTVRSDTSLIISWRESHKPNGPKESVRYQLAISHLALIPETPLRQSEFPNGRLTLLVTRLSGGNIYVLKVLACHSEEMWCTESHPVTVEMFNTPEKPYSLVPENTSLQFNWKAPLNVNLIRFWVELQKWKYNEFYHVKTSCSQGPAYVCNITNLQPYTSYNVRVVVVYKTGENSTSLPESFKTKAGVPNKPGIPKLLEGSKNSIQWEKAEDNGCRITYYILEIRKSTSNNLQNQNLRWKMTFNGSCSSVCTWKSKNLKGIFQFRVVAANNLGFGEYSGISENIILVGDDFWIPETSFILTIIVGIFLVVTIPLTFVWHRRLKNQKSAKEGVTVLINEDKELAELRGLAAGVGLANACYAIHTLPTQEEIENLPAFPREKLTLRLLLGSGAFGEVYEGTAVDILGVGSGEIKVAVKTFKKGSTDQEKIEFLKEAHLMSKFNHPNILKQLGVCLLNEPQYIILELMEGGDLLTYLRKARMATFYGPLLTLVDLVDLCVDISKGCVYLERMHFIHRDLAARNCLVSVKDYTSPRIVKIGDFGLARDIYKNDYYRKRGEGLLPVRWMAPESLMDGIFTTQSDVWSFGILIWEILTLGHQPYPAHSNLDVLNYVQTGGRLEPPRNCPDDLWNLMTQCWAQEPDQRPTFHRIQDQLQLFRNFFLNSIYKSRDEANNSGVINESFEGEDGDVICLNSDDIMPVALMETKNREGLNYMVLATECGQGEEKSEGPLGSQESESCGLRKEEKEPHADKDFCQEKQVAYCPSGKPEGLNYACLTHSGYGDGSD
The FIG-ROS-S fusion gene was synthesized using the GeneArt® service. FIG-ROS-S is denoted as FIG-ROS herein.

The record followed here is patent US20140243332A1, “METHODS OF TREATING CANCERS CHARACTERIZED BY ABERRENT ROS1 ACTIVITY” (Oregon Health & Science University, priority 2013, published 2014).

With `COc1cc2c(Oc3ccc(NC(=O)C4(C(=O)Nc5ccc(F)cc5)CC4)cc3F)ccnc2cc1OCCCN1CCOCC1` [foretinib, N1′-[3-fluoro-4-[[6-methoxy-7-(3-morpholinopropoxy)-4-quinolyl]oxy]phenyl]-N1-(4-fluorophenyl)cyclopropane-1,1-dicarboxamide], the GI50 is 15.3 nM.
